Holding throughout (test): relative viability (nuclei count vs DMSO), 5 days (fraction); higher = more cells survive
Compound in the assay “IPA-3 + Luminespib”: C1=CC=C2C(=C1)C=CC(=C2SSC3=C(C=CC4=CC=CC=C43)O)O [IPA-3] + CCNC(=O)c1noc(-c2cc(C(C)C)c(O)cc2O)c1-c1ccc(CN2CCOCC2)cc1 [Luminespib] (partner 0.01 µM)
An outline of the steps:
(§1)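 Lung cancer cell lines were pin-tool dosed in 1536-well plates on the day after seeding, with either a lone drug or a fixed anchor-drug dose plus five library-drug doses (not always all listed) in √10 steps. Nuclei were counted on 4× images after 5 days. Relative viability is the ratio of treated-well to vehicle-well nuclei counts, with each value a median of duplicate plates.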

Compound in the assay “RAF265 + Linsitinib”: Cn1c(Nc2ccc(C(F)(F)F)cc2)nc2cc(Oc3ccnc(-c4ncc(C(F)(F)F)[nH]4)c3)ccc21 [RAF265] + C[C@]1(O)C[C@@H](c2nc(-c3ccc4ccc(-c5ccccc5)nc4c3)c3c(N)nccn32)C1 [Linsitinib] (partner 1 µM)
An outline of the steps: as §1

Compound in the assay “RAF265 + Dasatinib”: Cn1c(Nc2ccc(C(F)(F)F)cc2)nc2cc(Oc3ccnc(-c4ncc(C(F)(F)F)[nH]4)c3)ccc21 [RAF265] + Cc1nc(Nc2ncc(C(=O)Nc3c(C)cccc3Cl)s2)cc(N2CCN(CCO)CC2)n1 [Dasatinib] (partner 0.075 µM)
The procedure, abridged: as §1

Compound in the assay “IPA-3 + Bortezomib”: C1=CC=C2C(=C1)C=CC(=C2SSC3=C(C=CC4=CC=CC=C43)O)O [IPA-3] + CC(C)C[C@H](NC(=O)[C@H](Cc1ccccc1)NC(=O)c1cnccn1)B(O)O [Bortezomib] (partner 0.002 µM)
The procedure, abridged:
as §1

As for UMC-11, the relative viability stood at 1.12 with IPA-3 + Luminespib (first compound 0.2 µM); 0.94 with IPA-3 + Luminespib (first compound 0.6325 µM); 1.05 with IPA-3 + Luminespib (first compound 2 µM); 1.06 with IPA-3 + Luminespib (first compound 6.325 µM); 1.53 in the assay with IPA-3 + Luminespib (first compound 20 µM); 1 with RAF265 + Linsitinib (first compound 0.01 µM). Besides, the relative viability was found to be 0.993 with RAF265 + Linsitinib (first compound 0.03162 µM); 0.953 with RAF265 + Linsitinib (first compound 0.1 µM); 0.986 with RAF265 + Linsitinib (first compound 0.3162 µM); 0.973 in the assay with RAF265 + Linsitinib (first compound 1 µM); 0.443 with RAF265 + Dasatinib (first compound 0.01 µM); 0.442 in the assay with RAF265 + Dasatinib (first compound 0.03162 µM). In addition, the relative viability in the assay with RAF265 + Dasatinib (first compound 0.1 µM) was found to be 0.457; with RAF265 + Dasatinib (first compound 0.3162 µM) it was 0.444; with RAF265 + Dasatinib (first compound 1 µM) it was 0.4; in the assay with IPA-3 + Bortezomib (first compound 0.2 µM) it was 0.923; in the assay with IPA-3 + Bortezomib (first compound 0.6325 µM) it was 0.767; in the assay with IPA-3 + Bortezomib (first compound 2 µM) it was 0.845. In addition, the values for the relative viability with IPA-3 + Bortezomib (first compound 6.325 µM) and with IPA-3 + Bortezomib (first compound 20 µM) were 0.726 and 0.986, respectively.

The values above are taken from the supplement of paper PMC10307832.
